Values after ≈ are worked out from the molar mass of the structure shown. Where two headings read alike, the source gives them in different places.
Tests used:
S. xylosus = test: MIC testing by broth microdilution; format: cell-based; settings: Staphylococcus xylosus; BK strain 26203
[1] = system: S. aureus USA300 subcutaneous infection; test: Mouse skin infection model, topical ointment; format: in vivo, mice; settings: topical ointment daily
[2] = mouse, in vivo, ip, 10 mg/kg
E. coli = test: Inhibition of bacterial growth; format: cell-based; settings: not shown
Procedure: (§1) Strains and reagents were the same as in the zone-inhibition assay (above). […] The culture was diluted again 1/500 in 1 mL of fresh media with the presence of increasing concentrations of tested compound or 1% DMSO as a control.

[3] = system: ribosomal translation in vitro (PURExpress); test: Purified in vitro translation assay (PURExpress); format: biochemical; settings: highest concentration tested
Description: (A) Coomassie blue staining of sodium dodecyl sulfate polyacrylamide gel electrophoresis (SDS-PAGE) following in vitro translation with the PURExpress translation kit (New England Biolabs). The protein synthesized (Dihydrofolate reductase) in the reaction is shown in the small rectangles superimposed on the gel. (B) Quantification using a BioRad gel scanner and software provided with this scanner.
PURExpress in vitro purified ribosomal translation kit (New England Biolabs) was used. Biochemical protocols used were as described by the manufacturer.

Staphylococcus aureus = test: MIC testing by broth microdilution; format: cell-based
S. capitis = test: MIC testing by broth microdilution; format: cell-based; settings: Staphylococcus capitis
[4] = format: in vitro ADME, human
Procedure: (§2) Briefly, each reaction mixture (110 µL) consisted of a test article (1 µM), mix gender human, male Sprague Dawley rat or male CD-1 mouse microsomal fractions (0.5 mg/mL), and NADPH regenerating system in phosphate buffer at pH 7.4. Samples were incubated in 384-well plates at 37°C for 0, 5, 10, 15, 30, and 60 min. Sample analysis and half-life calculations were performed using a previously described method ([22]). The three controls used were Buspirone (short half-life), Loperamide (moderate half-life), and Antipyrine (long half-life).
(§3) Categories were defined as follows: unstable, t1/2 < 30 min; stable, t1/2 > 30 min.

S. gallinarum = test: MIC testing by broth microdilution; format: cell-based; settings: BK strain 26189
[5] = system: non-aureus staphylococcal strains (14 species); test: MIC testing by broth microdilution, panel of non-aureus staphylococcal strains; format: cell-based, Staphylococcus spp.; settings: Staphylococcus; for 18 of 23 other Staphylococcal strains; read-out: MIC90 and MIC50
S. haemolyticus = test: MIC testing by broth microdilution; format: cell-based; settings: Staphylococcus haemolyticus; BK strain 21148
S. caprae = test: MIC testing by broth microdilution; format: cell-based; settings: BK strain 22945
S. epidermidis = test: MIC testing by broth microdilution; format: cell-based
[6] = system: A. baumannii (ATCC 17988); test: Drug susceptibility assay (96-well, MIC); format: cell-based; settings: Acinetobacter baumannii, ATCC17988; Gram-negative
S. lentus = test: MIC testing by broth microdilution; format: cell-based
in vivo = settings: male, C57B6, mouse, ip, 10 mg/kg
[7] = male, C57B6, mouse, in vivo, ip, 10 mg/kg, 7 h
S. sciuri = test: MIC testing by broth microdilution; format: cell-based
[8] = system: K. pneumoniae (ATCC 43816); test: Drug susceptibility assay (96-well, MIC); format: cell-based; settings: Klebsiella pneumoniae, ATCC43816; Gram-negative
S. aureus = test: Drug susceptibility assay (96-well, MIC); format: cell-based; settings: Staphylococcus aureus
[9] = system: P. aeruginosa (ATCC BAA47); test: Drug susceptibility assay (96-well, MIC); format: cell-based; settings: Pseudomonas aeruginosa, ATCCBAA47; Gram-negative
S. saprophyticus = test: MIC testing by broth microdilution; format: cell-based
S. aureus USA300 = settings: 15 µM, 0-4 h
Procedure: S. aureus USA300 was inoculated 1:100 into LB medium from overnight cultures. Cells were grown to the early exponential phase and back diluted to OD600 0.1. […] Samples were serially diluted and plated on LB agar. Colonies were enumerated after overnight incubation at 37°C. Time-kill experiments were performed with n = 4 biological replicates.

S. pseudintermedius = test: MIC testing by broth microdilution; format: cell-based
ERβ receptor = system: ERβ receptor; parameters: method as in PMID 9927308; settings: cited from earlier work
B. subtilis = test: Inhibition of bacterial growth in liquid culture; format: cell-based; settings: Bacillus subtilis
Procedure: as §1

[10] = format: in vitro ADME, rat
Procedure: as §2, §3

S. warneri = test: MIC testing by broth microdilution; format: cell-based
[11] = system: M. tuberculosis H37Rv (ATTC 27294); test: Drug susceptibility assay (96-well, MIC); format: cell-based; settings: Mycobacterium tuberculosis, Acid-fast
S. cohnii = test: MIC testing by broth microdilution; format: cell-based; settings: Staphylococcus cohnii; BK strain 22939
S. lugdunensis = test: MIC testing by broth microdilution; format: cell-based
S. simulans = test: MIC testing by broth microdilution; format: cell-based; settings: Staphylococcus simulans; BK strain 26201

Procedure for Vero cells (ATCC CCL-81): Compounds were tested for cytotoxicity against Vero cells using the CellTiter 96 AQueous One Solution Assay kit (Promega). Vero cells were seeded in 96-well plates at a density of 2 × 10^4 cells per well, and the plates were incubated for 4 h at 37°C to allow attachments of the Vero cells. Chemical compounds being tested were then added to the wells starting from a final concentration of 50 µg/mL and making 12 1:2 dilutions. Cells were incubated for 72 h at 37°C, after which 20 µL of freshly prepared MTS:PMS reagents were added to each well. Plates were incubated for 2 h and then read at an absorbance of 490 nm.

CC[C@@H]1Cc2cc(O)ccc2C2=C1c1ccc(O)cc1C[C@H]2CC [MGC-10]
cytotoxicity against Vero mammalian cells (Vero cells (ATCC CCL-81)): no cytotoxicity | MIC (cytotoxicity, Vero) (Vero cells (ATCC CCL-81); African green monkey, 72 h): 50 µM (≈ 16 µg/mL) | MIC (S. xylosus): 6 µM (≈ 1.92 µg/mL) | dermonecrosis as a result of S. aureus infection (area over time) ([1]; 5 days, vs untreated control (ointment without drug)): able to reduce dermonecrosis | bacterial burden in punch biopsies ([1]; day 5, vs untreated control): not statistically significant (P = 0.0575) | in-life observations [2]: exhibited hunched postures; and were lethargic | inhibition of growth of E. coli (E. coli): No inhibition | complete inhibition of translation [3]: complete inhibition was not achieved | MIC (Staphylococcus aureus; MRSA / USA300, BK strain 19494, CC 8, USA300, MRSA): 6 µM (≈ 1.92 µg/mL) | MIC (Staphylococcus aureus; MRSA / USA300 / USA500, MRSA clinical isolates typed as USA300 and USA500): 6 µM (≈ 1.92 µg/mL) | MIC (Staphylococcus aureus; MRSA / USA400, BK strain 19484, CC 1, USA400, MRSA): 6 µM (≈ 1.92 µg/mL) | MIC (Staphylococcus aureus; MRSA / USA600, BK strain 18519, CC 45, USA600, MRSA): 6 µM (≈ 1.92 µg/mL) | MIC (Staphylococcus aureus; MRSA / USA800, BK strain 18267, CC 5, USA800, MRSA): 6 µM (≈ 1.92 µg/mL) | MIC (Staphylococcus aureus; MRSA, BK strain 13180, CC 8, Trimethoprim-sulfamethoxazole resistant): 6 µM (≈ 1.92 µg/mL) | MIC (Staphylococcus aureus; MRSA, BK strain 21209, CC 8, Linezolid resistant): 6 µM (≈ 1.92 µg/mL) | MIC (Staphylococcus aureus; MRSA, BK strain 21346, CC 5, Tigecycline resistant): 6 µM (≈ 1.92 µg/mL) | MIC (Staphylococcus aureus; MRSA, BK strain 21347, CC 22, Linezolid resistant): 6 µM (≈ 1.92 µg/mL) | MIC (Staphylococcus aureus; MRSA, BK strain 22522, CC 5, Vancomycin resistant (vanA+), MRSA): 6 µM (≈ 1.92 µg/mL) | MIC (Staphylococcus aureus; MRSA, BK strain 22523, CC 5, Vancomycin resistant (vanA+), MRSA): 6 µM (≈ 1.92 µg/mL) | MIC (Staphylococcus aureus; MRSA, BK strain 23735, CC 125, BORSA): 6 µM (≈ 1.92 µg/mL) | MIC (Staphylococcus aureus; MRSA, BK strain 23736, CC 1, BORSA): 6 µM (≈ 1.92 µg/mL) | MIC (Staphylococcus aureus; MRSA, BK strain 26638, CC 398, LA-MRSA): 6 µM (≈ 1.92 µg/mL) | MIC (Staphylococcus aureus; MRSA, BK strain 46376, CC 8, hVISA): 6 µM (≈ 1.92 µg/mL) | MIC (Staphylococcus aureus; MRSA, BK strain 46377, CC 8, hVISA): 6 µM (≈ 1.92 µg/mL) | MIC (Staphylococcus aureus; MRSA, BK strain 58711, CC 5, Rifampin resistant): 6 µM (≈ 1.92 µg/mL) | MIC (Staphylococcus aureus; MRSA, BK strain 59775, CC 8, Trimethoprim-sulfamethoxazole resistant): 6 µM (≈ 1.92 µg/mL) | MIC (Staphylococcus aureus; MRSA, BK strain 61828, CC 398, MRSA): 6 µM (≈ 1.92 µg/mL) | MIC (Staphylococcus aureus; MRSA, BK strain 62861, CC 45, MRSA): 6 µM (≈ 1.92 µg/mL) | MIC (Staphylococcus aureus; MRSA, BK strain 62874, CC 59, MRSA): 6 µM (≈ 1.92 µg/mL) | MIC (Staphylococcus aureus; MRSA, BK strain 62961, CC 5, MRSA): 6 µM (≈ 1.92 µg/mL) | MIC (Staphylococcus aureus; MRSA, BK strain 62969, CC 5, MRSA): 6 µM (≈ 1.92 µg/mL) | MIC (Staphylococcus aureus; MRSA, BK strain 62976, CC 398, MRSA): 6 µM (≈ 1.92 µg/mL) | MIC (Staphylococcus aureus; MRSA, BK strain 63193, CC 30, MRSA): 6 µM (≈ 1.92 µg/mL) | MIC (Staphylococcus aureus; MRSA, BK strain 63218, CC 8, MRSA): 6 µM (≈ 1.92 µg/mL) | MIC (Staphylococcus aureus; MRSA, BK strain 63341, CC 8, MRSA): 6 µM (≈ 1.92 µg/mL) | MIC (Staphylococcus aureus; MRSA, BK strain 63738, CC 59, MRSA): 6 µM (≈ 1.92 µg/mL) | MIC (Staphylococcus aureus; MRSA, BK strain 63765, CC 30, MRSA): 12 µM (≈ 3.85 µg/mL) | MIC (Staphylococcus aureus; MRSA, BK strain 63776, CC 398, MRSA): 6 µM (≈ 1.92 µg/mL) | MIC (Staphylococcus aureus; MRSA, BK strain 63777, CC 45, MRSA): 6 µM (≈ 1.92 µg/mL) | MIC (Staphylococcus aureus; MRSA, methicillin-resistant Staphylococcus aureus (MRSA), abstract): 6 µM (≈ 1.92 µg/mL) | MIC (Staphylococcus aureus; MSSA / NCTC 8325, BK strain 21189, CC 8, MSSA (NCTC 8325)): 12 µM (≈ 3.85 µg/mL) | MIC (Staphylococcus aureus; MSSA, BK strain 73239, Mupirocin R): 1.5 µM (≈ 0.481 µg/mL) | MIC (Staphylococcus aureus; MSSA, BK strain 73242, Mupirocin R): 3 µM (≈ 0.961 µg/mL) | MIC (Staphylococcus aureus; MSSA, BK strain 73250, Mupirocin R): 3 µM (≈ 0.961 µg/mL) | MIC (Staphylococcus aureus; MSSA, BK strain 73267, Mupirocin R): 6 µM (≈ 1.92 µg/mL) | MIC (Staphylococcus aureus; MSSA, BK strain 73269, Mupirocin R): 6 µM (≈ 1.92 µg/mL) | MIC (Staphylococcus aureus; MSSA, BK strain 73336, Mupirocin R): 12 µM (≈ 3.85 µg/mL) | MIC (Staphylococcus aureus; MSSA, BK strain 73337, Mupirocin R): 3 µM (≈ 0.961 µg/mL) | MIC90 (Staphylococcus aureus; for 29 of 31 MRSA strains, read-out: MIC90 and MIC50): 6 µM (≈ 1.92 µg/mL) | MIC (Staphylococcus aureus; laboratory S. aureus strain 8325): 12 µM (≈ 3.85 µg/mL) | MIC (S. capitis; BK strain 22034): 12 µM (≈ 3.85 µg/mL) | MIC (S. capitis; BK strain 24463): 6 µM (≈ 1.92 µg/mL) | depletion of the compound in liver microsomes [4]: no depletion | MIC (S. gallinarum): 12 µM (≈ 3.85 µg/mL) | MIC90 [5]: 6 µM (≈ 1.92 µg/mL) | MIC (S. haemolyticus): 12 µM (≈ 3.85 µg/mL) | MIC (S. caprae): 6 µM (≈ 1.92 µg/mL) | MIC (S. epidermidis; BK strain 26974, Methicillin R): 6 µM (≈ 1.92 µg/mL) | MIC (S. epidermidis; Staphylococcus epidermidis, BK strain 21192, Methicillin R): 6 µM (≈ 1.92 µg/mL) | MIC [6]: > 100 µM | MIC (S. lentus; BK strain 26639, Methicillin R): 6 µM (≈ 1.92 µg/mL) | MIC (S. lentus; Mammaliicoccus lentus, BK strain 26191): 6 µM (≈ 1.92 µg/mL) | AUC(0-inf) (in vivo): 171 µg·h/mL | half-life (in vivo): 2.1 h | concentration at 7 h (in vivo; Clast): 733 ng/mL | Clast [7]: 532 ng/mL | MIC (S. sciuri; BK strain 26200): 6 µM (≈ 1.92 µg/mL) | MIC (S. sciuri; Mammaliicoccus sciuri, BK strain 26199): 6 µM (≈ 1.92 µg/mL) | MIC [8]: > 100 µM | MIC (S. aureus; ATCC25923): 6.25 µM (≈ 2 µg/mL) | MIC (S. aureus; ATCC35556): 6.25 µM (≈ 2 µg/mL) | MIC (S. aureus; ATCC 43300 / MRSA, S. aureus mecA + (MRSA) (ATCC 43300), Gram-positive, read-out: MIC): 6.25 µM | MIC [9]: > 100 µM | MIC (S. saprophyticus; BK strain 26195): 6 µM (≈ 1.92 µg/mL) | MIC (S. saprophyticus; Staphylococcus saprophyticus, BK strain 26194): 6 µM (≈ 1.92 µg/mL) | bactericidal test (CFU/mL over time) (S. aureus USA300): notable bactericidal activity | MIC (S. pseudintermedius; BK strain 24474): 6 µM (≈ 1.92 µg/mL) | MIC (S. pseudintermedius; BK strain 25938): 6 µM (≈ 1.92 µg/mL) | MIC (S. pseudintermedius; BK strain 26190): 12 µM (≈ 3.85 µg/mL) | activity at ERβ receptor (ERβ receptor): antagonist | inhibition at 6 µM (B. subtilis): 97% | depletion of the compound in liver microsomes [10]: no depletion | MIC (S. warneri; BK strain 26202): 6 µM (≈ 1.92 µg/mL) | MIC (S. warneri; Staphylococcus warneri, BK strain 24473): 6 µM (≈ 1.92 µg/mL) | MIC [11]: 100 µM (≈ 32 µg/mL) | MIC (S. cohnii): 12 µM (≈ 3.85 µg/mL) | MIC (S. lugdunensis; BK strain 28088, Methicillin R): 6 µM (≈ 1.92 µg/mL) | MIC (S. lugdunensis; Staphylococcus lugdunensis, BK strain 26192): 6 µM (≈ 1.92 µg/mL) | MIC (S. simulans): 6 µM (≈ 1.92 µg/mL)

From paper PMC11784183, “Identification of an antibiotic from an HTS targeting EF-Tu:tRNA interaction: a prospective topical treatment for MRSA skin infections” (Applied and Environmental Microbiology, 2024)
